# Laboratory results published in patent US6127541A, “Imidazoquinazoline derivatives” (Kyowa Hakko Kogyo Co., Ltd., priority 1996, dated 2000).
# Counter-ions that a name gives are not always drawn.
# How the values were obtained:
# rats [1] = assay: Hypotensive effect in anesthetized rats (mean blood pressure); assay type: in vivo, male Sprague-Dawley rat; settings: rat, 10 mg/kg, i.d. N = 2; from value before administration (100%)
# Procedure: Test Example 2. The Hypotensive Effect in Rats
# After a male Spraque-Dawley rat (two […]/group) anesthetized with urethane was fixed in the supine position, a cannula was inserted into trachea and the rat was artificially ventilated under the conditions of a tidal volume of […] and 60 breathes/min. The carotid artery and the duodenum were cannulated for measuring blood pressure and administering a drug, respectively. The drug was dissolved in distilled water and administered duodenally using the above cannula. Mean blood pressure (mBP) until […] after the drug-administration was measured and the maximum lowering rate (%) from the value before the drug-administration (100%) was determined. No change of mBP was observed during 30 minutes in case of administrating distilled water.
# [2] = target: T1, PDE V (cGMP-specific PDE) (Canis lupus familiaris, UniProt O77746); assay: Inhibitory activity on PDE V derived from canine tracheal smooth muscle; assay type: biochemical; settings: Compound conc.: 1 nM; substrate 1.0 μM [3H]cGMP; read-out: PDE V inhibitory activity, Inhibition rate (%)
# T1 construct: purified from canine tracheal smooth muscle; from tissue; host or cells: canine tracheal smooth muscle
# Procedure: Hereinafter, PDE inhibitory activity and pharmacological activity of the representative Compounds (I) are described in more detail by Test Examples. Test Example 1. The inhibitory activity on PDE derived from canine tracheal smooth muscle
# (1) Purification of an Enzyme
# According to the method of Torphy et al. [Mol. Pharmacol., 37, 206 (1990)], PDE V (cGMP-specific PDE) was purified from canine tracheal smooth muscle.
# (2) Measurement of PDE Activity
# The activity was measured based on the method of Kincaid et-al. [J. D. Corbin et al., Methods Enzymol., 159, 457(1988), Academic Press, New York]. The measurement was carried out using, as a substrate, 1.0 μM [^3 H]cGMP, and the reaction was carried out in a buffer having the following composition:
# 50 mM N,N-bis(2-hydroxyethyl)-2-aminoethanesulfonic acid (pH 7.2), 1 mM MgCl2, 0.1 mg/ml soybean trypsin inhibitor.
# The reaction was started by addition of the enzyme and stopped by addition of hydrochloric acid after reacting for 10 to 30 minutes at 30° C. Thereafter, sodium hydroxide was added for neutralization and 5'-GMP was converted into guanosine using 5'-nucleotidase. The reaction solution was subjected to DEAE-Sephadex A-25 column. [^3 H]Guano sine was eluted with distilled water and the radioactivity was measured with a liquid scintillation counter. The inhibitor was dissolved in 1.7% DMSO.
# rats [3] = assay: Effect on developed cavernous pressure and duration of tumescence in rats; assay type: in vivo, male Sprague-Dawley rat; settings: 20 μg/rat, injected into the cavernous body; for DCP (developed cavernous pressure), Pre / DT (duration of tumescence), Pre: before administration; for DCP (developed cavernous pressure), 6-min / DT (duration of tumescence), 6-min: six minutes after administration
# Procedure: Test Example 3. Effect of Developed Cavernous Pressure and Duration of Tumescence in Rats
# A male Sprague-Dawley rat was anesthetized with urethane (1.3 g/kg) subcutaneously injected into the back of the neck. The perineal incision was performed and the right crus of the penis was exposed. For measurement of cavernous pressure, a needle (25G) attached to a polyethylene tube (PE50) filled with a heparin solution was inserted into the right crus. The polyethylene tube was connected to a pressure transducer (MPC-500, Millar Instruments) and cavernous pressure was amplified with an amplifier (AP-621G, Nihon Kohden) and then recorded on a pen recorder (LR4220, Yokokawa Denki). The abdomen was incised and cavernous nerves on the prostate was exposed. The nerve was placed on a bipolar tungsten electrode and stimulated by current pulses(frequency; 20 Hz, duration; 0.2 ms, strength; 3 to 5 V) for 50 seconds with an electric stimulator (SEN-3201, Nihon Koden) to induce increases in cavernous pressure. The test compounds were dissolved in distilled water (DW) or 0.01 N hydrochloric acid at a concentration of 1 mg/ml and injected into the cavernous body(0.02 ml/rat) with a needle (27G). Before(Pre) and six minutes after administration (6-min). of distilled water (DW) or the test compounds, the nerve was stimulated, and developed cavernous pressure (DCP) and the duration of tumescence (DT) were measured. DT was defined as the time from the start of stimulation to 50% of the peak cavernous pressure after the end of stimulation.
smiles,measurement,setting,value
"CCn1c(=O)[nH]c2cc3c(NCc4ccc(NC)cc4)ncnc3cc21 [Compound 2, 3-Ethyl-8-(4-methylaminobenzylamino)-2,3-dihydro-1H-imidazo[4,5-g]quinazoline-2-one 2 hydrochloride]","Hypotensive activity, Maximum lowering rate (%) of mean blood pressure",rats [1],19.7%
"CCn1c(=O)[nH]c2cc3c(NCc4ccc(NCc5ccccc5)cc4)ncnc3cc21 [Compound 3, 8-(4-Benzylaminobenzylamino)-3-ethyl-2,3-dihydro-1H-imidazo[4,5-g]quinazoline-2-one 2 hydrochloride]",inhibition at 0.001 µM,[2],62%
"CCNc1ccc(CNc2ncnc3cc4c(cc23)[nH]c(=O)n4CC)cc1 [Compound 6, 3-Ethyl-8-(4-ethylaminobenzylamino)-2,3-dihydro-1H-imidazo[4,5-g]quinazoline-2-one 2 hydrochloride]",inhibition at 0.001 µM,[2],37%
"CCn1c(=O)[nH]c2cc3c(NCc4ccccc4N4CCSCC4)ncnc3cc21 [Compound 15, 3-Ethyl-8-(2-thiomorpholinobenzylamino)-2,3-dihydro-1H-imidazo[4,5-g]quinazoline-2-one 1 hydrochloride]","Hypotensive activity, Maximum lowering rate (%) of mean blood pressure",rats [1],19.8%
"CCn1c(=S)[nH]c2cc3c(NCc4ccccc4NC)ncnc3cc21 [Compound 22, 3-Ethyl-8-(2-methylaminobenzylamino)-2,3-dihydro-1H-imidazo[4,5-g]quinazoline-2-thione 2 hydrochloride]",inhibition at 0.001 µM,[2],91%
"CCn1c(=S)[nH]c2cc3c(NCc4ccc(NCc5ccccc5)cc4)ncnc3cc21 [Compound 24, 8-(4-Benzylaminobenzylamino)-3-ethyl-2,3-dihydro-1H-imidazo[4,5-g]quinazoline-2-thione 2 hydrochloride]",inhibition at 0.001 µM,[2],88%
"CCCNc1ccc(CNc2ncnc3cc4c(cc23)[nH]c(=S)n4CC)cc1 [Compound 26, 3-Ethyl-8-(4-propylaminobenzylamino)-2,3-dihydro-1H-imidazo[4,5-g]quinazoline-2-thione 2 hydrochloride]","DCP (developed cavernous pressure), Pre",rats [3],21.5 mmHg
same,"DT (duration of tumescence), Pre",rats [3],3.8 s
same,"DCP (developed cavernous pressure), 6-min",rats [3],27.7 mmHg
same,"DT (duration of tumescence), 6-min",rats [3],22.9 s
"CCNc1ccc(CNc2ncnc3cc4c(cc23)[nH]c(=S)n4CC)cc1 [Compound 27, 3-Ethyl-8-(4-ethylaminobenzylamino)-2,3-dihydro-1H-imidazo[4,5-g]quinazoline-2-thione 2 hydrochloride]",inhibition at 0.001 µM,[2],97%
"CCn1c(=S)[nH]c2cc3c(NCc4ccccc4NCCO)ncnc3cc21 [Compound 30, 3-Ethyl-8-[2-(2-hydroxyethylamino)benzylamino]-2,3-dihydro-1H-imidazo[4,5-g]quinazoline-2-thione 2 hydrochloride]",inhibition at 0.001 µM,[2],97%
"CCn1c(=S)[nH]c2cc3c(NCc4ccccc4N4CCOCC4)ncnc3cc21 [Compound 33, 3-Ethyl-8-(2-morpholinobenzylamino)-2,3-dihydro-1H-imidazo[4,5-g]quinazoline-2-thione 1 hydrochloride]",inhibition at 0.001 µM,[2],98%
"CCn1c(=S)[nH]c2cc3c(NCc4ccccc4N4CCC(CO)CC4)ncnc3cc21 [Compound 34, 3-Ethyl-8-[2-(4-hydroxymethylpiperidino)benzylamino]-2,3-dihydro-1H-imidazo[4,5-g]quinazoline-2-thione 2 hydrochloride]",inhibition at 0.001 µM,[2],95%
same,"DCP (developed cavernous pressure), Pre",rats [3],23.9 ± 2.0 mmHg
same,"DT (duration of tumescence), Pre",rats [3],3.3 ± 0.9 s
same,"DCP (developed cavernous pressure), 6-min",rats [3],31.1 ± 4.7 mmHg
same,"DT (duration of tumescence), 6-min",rats [3],16.9 ± 2.4 s
"CCn1c(=S)[nH]c2cc3c(NCc4ccccc4N4CCCCC4)ncnc3cc21 [Compound 35, 3-Ethyl-8-(2-piperidinobenzylamino)-2,3-dihydro-1H-imidazo[4,5-g]quinazoline-2-thione 2 hydrochloride]",inhibition at 0.001 µM,[2],95%
same,"DCP (developed cavernous pressure), Pre",rats [3],22.6 mmHg
same,"DT (duration of tumescence), Pre",rats [3],1.6 s
same,"DCP (developed cavernous pressure), 6-min",rats [3],21.2 mmHg
same,"DT (duration of tumescence), 6-min",rats [3],8.1 s
"CCn1c(=S)[nH]c2cc3c(NCc4ccccc4N4CCN(C)CC4)ncnc3cc21 [Compound 36, 3-Ethyl-8-[2-(4-methyl-1-piperazinyl)benzylamino]-2,3-dihydro-1H-imidazo[4,5-g]quinazoline-2-thione 3 hydrochloride]","Hypotensive activity, Maximum lowering rate (%) of mean blood pressure",rats [1],17.6%
"CCn1c(=S)[nH]c2cc3c(NCc4cccc(N5CCN(C)CC5)c4)ncnc3cc21 [Compound 40, 3-Ethyl-8-[3-(4-methyl-1-piperazinyl)benzylamino]-2,3-dihydro-1H-imidazo[4,5-g]quinazoline-2-thione 3 hydrochloride]","Hypotensive activity, Maximum lowering rate (%) of mean blood pressure",rats [1],16.1%
